Assay results from paper PMC11364095 (Science Advances, 2024).

Test system: E. coli ATCC 35218
Assay: Resistance development assay
Assay type: cell-based
Conditions: after 16 passages, serial passaging in sub-MIC concentrations

Row | Compound | fold increase of MIC against E. coli ATCC 35218
1 | O=C(O)c1cn(C2CC2)c2cc(N3CCNCC3)c(F)cc2c1=O [ciprofloxacin] | 256 fold
2 | colistin | 128 fold
